Experimental data as given in patent US5919761A, “Peptides for heparin and low molecular weight heparin anticoagulation reversal” (The Board of Regents of the University of Michigan, priority 1995, dated 1999).

Legend:
[1] = tested on: standard, unfractionated heparin; experiment: Factor Xa and IIa reversal after standard heparin, cell adhesion ligand analogs, canine study; type: in vivo; conditions: dogs, 3 min post administration
Protocol: Anticoagulation reversal was assessed by a number of standard coagulation tests performed upon samples of venous blood in the manner described hereinabove. Measurements were made 3 minutes prior to heparin reversal (baseline) and 3 minutes, 10 minutes, and 30 minutes post-administration of the heparin reversal agent. […] Referring to FIGS. 4a through 4d, compound [+18RGD] performs as well, or better, than n-protamine in the standard coagulation tests performed in these studies.

LMWH (LHN-1, Logiparin) = experiment: Percent reversal of low molecular weight heparin anticoagulation, in vivo canine study, coagulation tests; parameters: species or system dogs; conditions: for aPTT reversal: Logiparin
Protocol: Anticoagulation reversal was assessed by a number of standard coagulation tests performed upon samples of venous blood: activated clotting time (ACT), heparin concentration by assay for FXa inhibitory activity (FXa), thrombin clotting time (TCT), and heparin concentration by assay for FIIa inhibitory activity (FIIa). Measurements were made 3 minutes prior to heparin reversal (baseline) and 3 minutes, 10 minutes, and 30 minutes post-administration of the heparin reversal agent. […] The coagulation data were corrected for naturally occurring metabolism.

LMWH (Enoxaparin) = experiment: Factor Xa and IIa reversal after LMWH Enoxaparin, canine study; type: in vivo; conditions: dogs, 3 min
Protocol: Similar studies were conducted to assess the ability of the protamine-like peptide analogs described in this section to reverse the anticoagulation effects of the LMWH, Enoxaparin. FIG. 5a through FIG. 5d are graphical representations of LMWH anticoagulation activities achieved by n-protamine (Protamine [+21]), and compounds [+18BE], [+18KDEL], and [+18RGD] plotted as a percent of reversal against time in minutes. […] Referring to FIG. 5c, compound [+18RGD] dramatically outperforms n-protamine in reversing the heparin antifactor Xa activity of Enoxaparin.

“PR4 S3 RPVR5 PRVSR6 G2 R4 [Protamine [+21], reference compound]” was tested, and the “IIa Reversal” value [1] was 98%, the “Xa Reversal” value [1] was 99% and the aPTT reversal (LMWH (LHN-1, Logiparin); dogs, 3 minute measurement) was 50%. For the same substance, the aPTT reversal (LMWH (LHN-1, Logiparin); dogs, 10 minute measurement) was 83%, the aPTT reversal (LMWH (LHN-1, Logiparin); dogs, 30 minute measurement) was 78% and the “Percent reversal of LMWH anticoagulation, ACT” value (“Percent reversal … ACT” for short) (LMWH (LHN-1, Logiparin); dogs, Logiparin 150 IU/kg, agent 1.5 mg/kg IV after 30 min, 3 min post-administration, corrected for metabolism) was 99%. For the same substance, the “Percent reversal of LMWH anticoagulation, FNa” value (LMWH (LHN-1, Logiparin); same study, 3 min) was 99%, the “Percent reversal of LMWH anticoagulation, FXa” value (“Percent reversal … FXa” for short) (LMWH (LHN-1, Logiparin); same study, 3 min) was 63% and the “Percent reversal of LMWH anticoagulation, TCT” value (“Percent reversal … TCT” for short) (LMWH (LHN-1, Logiparin); same study, 3 min) was 100%. The “Percent reversal … ACT” value (LMWH (LHN-1, Logiparin); same study, 10 min) was 88%, the “Percent reversal … FXa” value (LMWH (LHN-1, Logiparin); same study, 10 min) was 45% and the “Percent reversal … TCT” value (LMWH (LHN-1, Logiparin); same study, 10 min) was 98%. For the same substance, the “Percent reversal … ACT” value (LMWH (LHN-1, Logiparin); same study, 30 min) was 82%, the “Percent reversal of LMWH anticoagulation, FNa” value (LMWH (LHN-1, Logiparin); same study, 30 min) was 86% and the “Percent reversal … FXa” value (LMWH (LHN-1, Logiparin); same study, 30 min) was 44%. The “Percent reversal … TCT” value (LMWH (LHN-1, Logiparin); same study, 30 min) was 96%, the “IIa Reversal” value (LMWH (Enoxaparin)) was 98% and the “Xa Reversal” value (LMWH (Enoxaparin)) was 30%.
